Laboratory results from article PMC12829593 (Journal of cystic fibrosis : official journal of the …, 2025).
In brackets after ≈: the same amount, converted by molar mass. Where two headings read alike, the source gives them in different places.

Assays:
[1] = format: in vivo, human; conditions: mean (SD); for Cavg / Cmin / AUC / Cmax / half-life / Tmax: plasma; for Cavg / Cmin / Cmax: steady state; for AUC / Cmax / half-life / Tmax: human, oral; for AUC: AUCτ, AUC24 (ELX, TEZ) or AUC12 (IVA)
CFTR = conditions: estimated from published data, compounds used concurrently; cited from earlier work
[2] = Tacrolimus concentration in transplant participants; format: in vivo, human; conditions: Transplant (n=12), concurrent ETI, mean (SD)
[3] = Transplant group (n=12), concomitant tacrolimus
[4] = T1/2, Non-transplant group (n=14)
[5] = T1/2, Transplant group (n=12), concomitant tacrolimus

Row | CLss/F ([1]; Non-transplant group (n=14)) | V/F ([1]; Non-transplant group (n=14)) | Cavg ([1]; Non-transplant group (n=14)) | Cmin ([1]; Non-transplant group (n=14)) | Cmin ([1]; Non-transplant group (n=14), listed as IVA) [ng/mL] | CLss/F [1, 3] | V/F [1, 3] | Cavg [1, 3] | Cmin [1, 3] | AUC ([1]; Non-transplant group (n=14)) [ng·h/mL] | AUC [1, 3] [ng·h/mL] | Cmax ([1]; Non-transplant group (n=14)) [ng/mL] | half-life [1, 4] [h] | half-life [1, 5] [h] | Tmax ([1]; Non-transplant group (n=14)) [h] | Tmax [1, 3] [h] | Cmax [1, 3] [ng/mL] | Tacrolimus concentration [2] | SMILES | EC50 (CFTR) [µg/mL] | EC90 (CFTR) [µg/mL]
1 | 27.9 (47.4) L/h | 337 (441) | 947 (507) ng/mL | 525 (325) ng/mL | 525 | 19.9 (15.5) L/h | 168 (71) | 833 (342) ng/mL | 467 (203) ng/mL | 11400 | 9900 | 1380 | 9.4 | 7.8 | 4 | 4.6 |  |  | CC(C)(C)c1cc(C(C)(C)C)c(NC(=O)c2c[nH]c3ccccc3c2=O)cc1O [Ivacaftor, ivacaftor] | 0.04 (≈ 0.102 µM) | 0.35 (≈ 0.892 µM)
2 | 1.53(0.83) L/h | 37.1(24.4) | 3294(1314) ng/mL | 1746(1050) ng/mL |  | 1.54(1.07) L/h | 47.5(59) | 3403(1240) ng/mL | 2016(904) ng/mL | 79000 | 82000 | 7460 | 19 | 21 | 2.21 | 3.08 | 6520 |  | CC(C)(CO)c1cc2cc(NC(=O)C3(c4ccc5c(c4)OC(F)(F)O5)CC3)c(F)cc2n1C[C@@H](O)CO [Tezacaftor, tezacaftor] | 0.4 (≈ 0.768 µM) | 3.5 (≈ 6.72 µM)
3 |  |  |  |  |  |  |  |  |  |  |  |  |  |  |  |  |  | 6.5 (1.5) ng/mL | C=CC[C@@H]1/C=C(\C)C[C@H](C)C[C@H](OC)[C@H]2O[C@@](O)(C(=O)C(=O)N3CCCC[C@H]3C(=O)O[C@H](/C(C)=C/[C@@H]3CC[C@@H](O)[C@H](OC)C3)[C@H](C)[C@@H](O)CC1=O)[C@H](C)C[C@@H]2OC [Tacrolimus, tacrolimus] |  | 
4 | 2.05(2.29) L/h | 107(155) | 6398(3233) ng/mL | 4327(2359) ng/mL |  | 1.23(0.79) L/h | 37.4(15.0) | 8339(3152) ng/mL | 5632(2664) ng/mL | 154000 | 200000 | 9080 | 35 | 23.6 | 4.79 | 7.33 | 11400 |  | Cc1nn(C)cc1S(=O)(=O)NC(=O)c1ccc(-n2ccc(OCC(C)(C)C(F)(F)F)n2)nc1N1C[C@@H](C)CC1(C)C [Elexacaftor, elexacaftor] | 0.5 (≈ 0.837 µM) | 4.5 (≈ 7.53 µM)
